Measurements as given in patent publication US20080159987A1 (priority 2007, published 2008).

Assays:
IBS patients with RLS [1] = experiment: Open-label, observational pilot trial: RLS symptom improvement; type: in vivo, human
From the text: It was suspected that the patient might have postinfectious IBS and SIBO.
(§1) Patients visiting a community-based adult gastroenterology clinic over a 4-month period were eligible for the study if they presented with functional bowel symptoms and had abnormal lactulose breath test (LBT) results. Patients were excluded if they had celiac disease, Crohn's disease, pancreatic insufficiency, ulcerative colitis, scleroderma, diabetes, chronic renal failure, or surgeries predisposing them to SIBO. A diagnosis of RLS was confirmed using the Johns Hopkins validated interview process.
(§2) This was followed by long-term administration of the prokinetic medicine tegaserod (ZELNORM® produced by Novartis Pharmaceuticals Corporation, East Hanover, N.J.) 3 mg nightly plus short-term treatment with zinc 220 mg/d for one month for increased small intestinal permeability and a bifidobacteria-based probiotic (FLORA-Q® produced by Kenwood Therapeutics, Fairfield, N.J.) once daily for one month. Two patients were treated with rifaximin alone.
(§3) The percentage of RLS symptom improvement was assessed at the end of follow-up.
Thirteen IBS patients with confirmed RLS were included in the study. Eleven of these 13 patients were originally included in a SIBO study of IBS: 19 of 161 patients with an abnormal LBT result thought they had RLS. A diagnosis of RLS was confirmed in 11 of these 19 patients by the Johns Hopkins validated interview process. The remaining 2 of 13 patients with RLS (1 was the propositus and the other was referred from a neurology clinic) had been previously evaluated and treated for RLS by a neurologist.
(§4) The remaining two patients (the neurology clinic patient and propositus) received a modified treatment regimen.
Percentages of RLS and IBS symptom improvement as well as global IBS symptom improvement were assessed at a mean of 107 days (range, 22-450 days). […] The ten patients who responded included the three patients who had borderline or low serum levels of iron at baseline. […]

IBS patients with RLS [2] = experiment: Open-label, observational pilot trial: GI (IBS) symptom improvement questionnaire; type: in vivo, human
From the text: as §1, §2
Each patient completed a questionnaire identifying the occurrence and rating the severity of six IBS symptoms experienced during the week before the LBT was conducted (baseline): abdominal pain, bloating, constipation, diarrhea, flatulence, and postprandial fullness. A history consistent with RLS and fibromyalgia was sought. Serum ferritin levels were measured at baseline.
as §3, §4
Percentages of RLS and IBS symptom improvement as well as global IBS symptom improvement were assessed at a mean of 107 days (range, 22-450 days). […] The ten patients who responded included the three patients who had borderline or low serum levels of iron at baseline. […] Eight of the ten patients with at least 80% improvement in RLS symptoms were followed long-term (mean, 139 days; range, 54-450 days), and 5 of the 8 patients reported complete (100%) resolution of RLS symptoms at the last follow-up visit.

IBS patients with RLS [3] = experiment: Follow-up lactulose breath test (LBT); type: in vivo, human; conditions: neurology patient, two months after completing rifaximin therapy
Protocol: Patients consumed a low carbohydrate dinner and fasted overnight. Breath samples were collected every 15 minutes for 180 minutes and were analyzed by gas chromatography (using, for example, a QUINTRON DP PLUS MICROLYZER™ manufactured by QuinTron Instrument Company, Milwaukee, Wis.) for levels of hydrogen and methane. After a baseline recording, patients consumed 10 g of lactulose powder (for example, KRISTALOSE® produced by Bertek Pharmaceuticals Inc, Sugar Land, Tex.) dissolved in 240 mL of water. An abnormal LBT result was defined as an increase of greater than 20 ppm above baseline levels for hydrogen and/or methane gas 180 minutes or less after ingesting lactulose. An abnormal flatline LBT result was defined as a lack of a greater than 5-ppm increase above baseline levels for either hydrogen or methane during the 180-minute test. The role of SIBO in IBS and diseases other than restless legs syndrome, as well as the efficacy of breath tests in the diagnosis of SIBO is discussed in U.S. Pat. Nos. 6,861,053; 6,805,852; 7,056,686; and 7,048,906 to Lin and Pimentel, the disclosures of each of which are expressly incorporated by reference herein.

[4] = cited from earlier work
[5] = day 11, after ten days of rifaximin therapy
[6] = end of follow-up (mean 107 days), rifaximin followed by tegaserod, zinc, probiotic in 11 of 13
[7] = last follow-up visit, 13 patients

CO[C@H]1/C=C/O[C@@]2(C)Oc3c(C)c(O)c4c(O)c(c5c(nc6cc(C)ccn65)c4c3C2=O)NC(=O)/C(C)=C\C=C\[C@H](C)[C@H](O)[C@@H](C)[C@@H](O)[C@@H](C)[C@H](OC(C)=O)[C@@H]1C [rifaximin]
patients reporting complete (100%) resolution of RLS symptoms at the last follow-up visit (IBS patients with RLS [1]; of 8 responders followed long-term (mean 139 days; range 54-450 days)): 5 of the 8
patients exhibiting at least 80% improvement in RLS symptoms at the last follow-up visit (IBS patients with RLS [1]; rifaximin 400 mg three times daily for ten days, in 11 of 13 followed by tegaserod, zinc, probiotic, assessed at mean 107 days (range 22-450)): Ten of 13
response for both RLS and IBS symptoms (IBS patients with RLS [1]; single patient (propositus), empiric treatment with rifaximin): dramatic, rapid, and prolonged response
GI symptom improvement: abdominal pain (IBS patients with RLS [2]; [5]): 74%
GI symptom improvement: bloating (IBS patients with RLS [2]; [5]): 70%
GI symptom improvement: constipation (IBS patients with RLS [2]; [5]): 64%
GI symptom improvement: diarrhea (IBS patients with RLS [2]; [5]): 73%
GI symptom improvement: flatulence (IBS patients with RLS [2]; [5]): 47%
GI symptom improvement: postprandial fullness (IBS patients with RLS [2]; [5]): 65%
GI symptom improvement: abdominal pain (IBS patients with RLS [2]; [6]): 81%
GI symptom improvement: bloating (IBS patients with RLS [2]; [6]): 76%
GI symptom improvement: constipation (IBS patients with RLS [2]; [6]): 59%
GI symptom improvement: diarrhea (IBS patients with RLS [2]; [6]): 68%
GI symptom improvement: flatulence (IBS patients with RLS [2]; [6]): 55%
GI symptom improvement: postprandial fullness (IBS patients with RLS [2]; [6]): 67%
global symptom improvement rated as greatly improved (IBS patients with RLS [2]; [7]): 6 patients
global symptom improvement rated as mildly improved (IBS patients with RLS [2]; [7]): two
global symptom improvement rated as moderately improved (IBS patients with RLS [2]; [7]): five
LBT result after therapy (IBS patients with RLS [3]): normal
solubility in water [4]: practically insoluble in water
